Measured values: patent publication US20240116985A1, “STAPLED PEPTIDES AND METHODS THEREOF” (priority 2020, published 2024)

Experiment: CHI Log D procedure
Assay type: physicochemical
Conditions: pH 7.4

Q: Which “CHI Log D” value does the source give for COc1cccc(C[C@H](NC(=O)[C@]23CCN(C2)C(=O)OCC=CCCCCCC[C@@](C)(NC(=O)[C@H](C)NC(=O)[C@H](CC(=O)O)NC(=O)[C@H](Cc2ccccc2)NC(C)=O)C(=O)N[C@@H](CC(=O)O)C(=O)N[C@@H](CC(=O)O)C(=O)N[C@@H](C)C(=O)N[C@@H](C)C(=O)N[C@@H](Cc2ccccc2)C(=O)N[C@@H](C(C)C)C(=O)N3)C(=O)N[C@@H](Cc2c[nH]c3ccccc23)C(=O)N[C@@H](CCC(N)=O)C(N)=O)c1 (single isomer, unassigned) [I-102, Ac-Phe-Asp-Ala-R8-Asp-Asp-Ala-Ala-Phe-Val-PyrS-3OMeF-Trp-Gln-NH2] here?
A: Its value is 1.274.

Q: Which “CHI Log D” value does the source give for CC(=O)N[C@@H](Cc1ccccc1)C(=O)N[C@@H](CC(=O)O)C(=O)N[C@@H](C)C(=O)N[C@]1(C)CCN(C)C(=O)OCC=CCCCCC[C@@](C)(C(=O)N[C@@H](Cc2ccccc2)C(=O)N[C@@H](Cc2c[nH]c3ccccc23)C(=O)N[C@@H](CCC(N)=O)C(N)=O)NC(=O)[C@H](C(C)C)NC(=O)[C@H](Cc2ccccc2)NC(=O)[C@H](C)NC(=O)[C@H](C)NC(=O)[C@H](CC(=O)O)NC(=O)[C@H](CC(=O)O)NC1=O (single isomer, unassigned) [I-2, Ac-Phe-Asp-Ala-RdN-Asp-Asp-Ala-Ala-Phe-Val-S7-Phe-Trp-Gln-NH2] here?
A: Its value is 1.246.

Same assay, conditions: pH 7.4, CHI Log D

Q: Which chromatographic logD does the source give for CC(=O)N[C@@H](Cc1ccccc1)C(=O)N[C@@H](CC(=O)O)C(=O)N[C@@H](C)C(=O)N[C@]1(C)CCN(C)C(=O)OCC=CCC[C@@](C)(C(=O)N[C@@H](Cc2ccccc2)C(=O)N[C@@H](Cc2c[nH]c3ccccc23)C(=O)N[C@@H](CCC(N)=O)C(N)=O)NC(=O)[C@H](C(C)C)NC(=O)[C@H](Cc2ccccc2)NC(=O)[C@H](C)NC(=O)[C@H](C)NC(=O)[C@H](CC(=O)O)NC(=O)[C@H](CC(=O)O)NC1=O (single isomer, unassigned) [I-41, Ac-Phe-Asp-Ala-RdN-Asp-Asp-Ala-Ala-Phe-Val-S4-Phe-Trp-Gln-NH2] here?
A: The chromatographic logD was 1.09.

Q: For CC(=O)N1CCC[C@]12CC=CCCCC1(CCCC=CCCCCCC[C@@](C)(C(=O)N[C@@H](Cc3ccc(Cl)cc3)C(=O)N[C@@H](Cc3c[nH]c4ccccc34)C(=O)N[C@@H](CCC(N)=O)C(N)=O)NC(=O)[C@H](C(C)C)NC(=O)[C@H](Cc3ccccc3)NC(=O)[C@H](C)NC(=O)[C@H](C)NC(=O)[C@H](CC(=O)O)NC(=O)[C@H](CC(=O)O)NC1=O)NC(=O)[C@H](C)NC(=O)[C@H](CC(=O)O)NC2=O (single isomer, unassigned) [I-312, Ac-PL3-Asp-Ala-B5-Asp-Asp-Ala-Ala-Phe-Val-S8-4C1F-Trp-Gln-NH2], which chromatographic logD is on record?
A: Its chromatographic logD is 2.13.

Q: With CC(=O)N[C@@H](Cc1ccccc1)C(=O)N[C@@H](CC(=O)O)C(=O)N[C@]1(C)CCCCCCC=CCOC(=O)N2CC[C@@](C(=O)N[C@@H](C)C(=O)N[C@@H](Cc3ccccc3)C(=O)N[C@@H](Cc3c[nH]c4ccccc34)C(=O)N[C@@H](CCC(N)=O)C(N)=O)(C2)NC(=O)[C@H](Cc2ccccc2)NC(=O)[C@H](C)NC(=O)[C@H](C)NC(=O)[C@H](CC(=O)O)NC(=O)[C@H](CC(=O)O)NC(=O)[C@H](C)NC1=O [I-51, Ac-Phe-Asp-R8-Ala-Asp-Asp-Ala-Ala-Phe-PyrS-Ala-Phe-Trp-Gln-NH2] as the compound, how does the chromatographic logD read?
A: Its chromatographic logD is 1.25.

Q: With CC(=O)N1CCC[C@]12CC=CCCCC1(CCCC=CCCCCCC[C@@](C)(C(=O)N[C@@H](Cc3c(F)c(F)c(F)c(F)c3F)C(=O)N[C@@H](Cc3c[nH]c4ccccc34)C(=O)N[C@@H](CCC(N)=O)C(N)=O)NC(=O)[C@H](C(C)C)NC(=O)[C@H](Cc3ccccc3)NC(=O)[C@H](C)NC(=O)[C@H](C)NC(=O)[C@H](CCC(=O)O)NC(=O)[C@H](CC(=O)O)NC1=O)NC(=O)[C@H](C)NC(=O)[C@H](CC(=O)O)NC2=O (stereo partly drawn) [I-183, Ac-PL3-Asp-Ala-B5-Asp-Glu-Ala-Ala-Phe-Val-S8-Pff-Trp-Gln-NH2] as the compound, how does the chromatographic logD read?
A: The chromatographic logD was 2.21.
